Our source for the CC50 values is publication PMC6792352, “Limited Chemical Structural Diversity Found to Modulate Thyroid Hormone Receptor in the Tox21 Chemical Library” (Environmental Health Perspectives, 2019).

The nature of the series: in vitro. Conditions: rat, gh3-tre-luc cells.

Where a name gives a salt, the structure may show the parent alone.

The term CC50 denotes the concentration at which the toxic effect on the cells reaches its halfway point. High values mean lower toxicity to the cells, low ones greater toxicity to the cells. Take `CCCCCCCCCCCOC(=O)c1ccccc1C(=O)OCCCCCCCCCCC` [Diundecyl phthalate]: where the note is “AC50 (uM) modified / 1000”, the CC50 at 24 h is over 50 µM. The same measure, in the same setting: with `O=C(O)/C=C\C(=O)Nc1ccc(S(=O)(=O)Nc2nccs2)cc1` [Maleylsulfathiazole] the figure was over 50 µM; with `CC(C)(C)CC(C)(C)c1ccccc1O` [(1,1,3,3-Tetramethylbutyl)phenol (all isomers)], 31.1 µM; with `O=C1c2ccccc2C(=O)N1CCl` [2-(Chloromethyl)-1H-isoindole-1,3(2H)-dione], over 90 µM. As to `c1cc(OCC2CO2)cc(OCC2CO2)c1` (stereo not drawn) [Diglycidyl resorcinol ether], the CC50 at 24 h (AC50 (uM) modified / 1000) amounted to 17.3 µM. For `Cc1nnc(C(C)C)n1[C@@H]1C[C@H]2CC[C@@H](C1)N2CC[C@H](NC(=O)C1CCC(F)(F)CC1)c1ccccc1` [Maraviroc], the CC50 at 24 h (AC50 (uM) modified / 1000) was over 50 µM.

`C=CC(C)(CCC=C(C)C)OC(=O)c1ccccc1N` (stereo not drawn) [Linalyl anthranilate] returned a CC50 at 24 h (AC50 (uM) modified / 1000) of over 90 µM. `c1ccc(-c2cccc(-c3ccccc3)c2)cc1` [1,1':3',1''-Terphenyl] displayed a half-maximal cytotoxic concentration (CC50) at 24 h (AC50 (uM) modified / 1000) of over 90 µM.

`COC(=O)c1sccc1S(=O)(=O)NC(=O)Nc1nc(C)nc(OC)n1` [Thifensulfuron-methyl] showed a CC50 at 24 h (AC50 (uM) modified / 1000) of over 90 µM.

As to `CC#CCC(C)[C@H](O)/C=C/[C@@H]1[C@H]2c3cccc(CCCC(=O)O)c3O[C@H]2C[C@H]1O` (mixture of isomers) [Beraprost sodium], the CC50 at 24 h (AC50 (uM) modified / 1000) was over 50 µM. In the case of `Cc1ccc([N+](=O)[O-])cc1` [4-Nitrotoluene], the CC50 at 24 h (AC50 (uM) modified / 1000, Tox21_110001=Tox21_201464, viability, 1 nM T3 present, 24 h) was over 90 µM.

For `O=C(/C=C/c1ccccc1)OCCc1ccccc1` [2-Phenylethyl 3-phenylprop-2-enoate], for the setting “AC50 (uM) modified / 1000”, the half-maximal cytotoxic concentration (CC50) at 24 h is over 90 µM.

In the case of `CCOC(=O)CC(=O)CCl` [Ethyl 4-chloro-3-oxobutanoate], it took 76.9 µM to reach half-maximal cytotoxicity (AC50 (uM) modified / 1000, Tox21_110001=Tox21_302063, viability, 1 nM T3 present, 24 h) (CC50 at 24 h). For the molecule `O=C/C=C/c1ccco1` [(E)-3-(2-Furyl)acrolein], the CC50 at 24 h (AC50 (uM) modified / 1000, Tox21_110001=Tox21_202896, viability, 1 nM T3 present, 24 h) is over 90 µM. As to `O=C(Cl)c1ccccc1` [Benzoyl chloride], where the note is “AC50 (uM) modified / 1000”, the CC50 at 24 h is over 90 µM.

As to `Cc1ncsc1CCO` [Thiamine thiozole], the CC50 at 24 h (AC50 (uM) modified / 1000) was over 90 µM. In turn, `CCC(C)SSC(C)CC` (stereo not drawn) [Dibutan-2-yl disulfide] displayed a CC50 at 24 h (AC50 (uM) modified / 1000) of over 90 µM.

`CCCCCCCCCBr` [n-Nonyl bromide]: under “AC50 (uM) modified / 1000, Tox21_110001=Tox21_202864, viability, 1 nM T3 present, 24 h”, the CC50 at 24 h is over 90 µM. With `Cc1cccc(Nc2ncccc2C(=O)O)c1C` [Nixylic acid], the CC50 at 24 h (AC50 (uM) modified / 1000) was over 50 µM.

Take `Nc1ncnc2c1ncn2CCOCP(=O)(O)O` [Adefovir]: the CC50 at 24 h (AC50 (uM) modified / 1000) is over 50 µM. The same measure, in the same setting: with `C=CC(=O)CC` [Ethyl vinyl ketone] the figure was over 90 µM. `CC(=O)Nc1c(I)c(NC(C)=O)c(I)c(C(=O)O)c1I` [Diatrizoic acid dihydrate]: under “AC50 (uM) modified / 1000”, the cytotoxic concentration (CC50) at 24 h is over 50 µM.

With `CCCCCCCCCCCCCCCC(=O)O` [Hexadecanoic acid], for the setting “AC50 (uM) modified / 1000”, the CC50 at 24 h is over 90 µM. Take `CS(=O)(=O)c1ccc(C(=O)C2C(=O)CCCC2=O)c([N+](=O)[O-])c1` [Mesotrione]: for the setting “AC50 (uM) modified / 1000”, the CC50 at 24 h is over 90 µM. On the same count and under the same terms, then `FC(F)(F)C(F)(F)C(F)(F)C(F)(F)CCI` [1,1,1,2,2,3,3,4,4-Nonafluoro-6-iodohexane], with over 40 µM. Molecule `CCN[C@@H](C)Cc1cccc(C(F)(F)F)c1` [Dexfenfluramine hydrochloride] yielded a CC50 at 24 h (AC50 (uM) modified / 1000, Tox21_110001=Tox21_112864, viability, 1 nM T3 present, 24 h) of over 90 µM. Turning to `C[C@]12C/C(=C/O)C(=O)C[C@@H]1CC[C@@H]1[C@@H]2CC[C@@]2(C)[C@H]1CC[C@]2(C)O` [Oxymetholone], the CC50 at 24 h by setting is: (AC50 (uM) modified / 1000, Tox21_110001=Tox21_111131, viability, 1 nM T3 present, 24 h) over 50 µM; (AC50 (uM) modified / 1000, Tox21_110001=Tox21_200071, viability, 1 nM T3 present, 24 h) 67.3 µM. On to `Cc1c(Cl)cccc1[N+](=O)[O-]` [1-Chloro-2-methyl-3-nitrobenzene], for which the cytotoxic concentration (CC50) at 24 h (AC50 (uM) modified / 1000) was over 90 µM. Under “AC50 (uM) modified / 1000”, `O=C(CCN1CCN(CCO)CC1)N1c2ccccc2Sc2ccc(C(F)(F)F)cc21` [Ftorpropazine] had a CC50 at 24 h of 16.3 µM. As to `Cc1ccc(OP(=O)(Oc2ccc(C)cc2)Oc2ccc(C)cc2)cc1` [Tricresyl phosphate], the CC50 at 24 h (AC50 (uM) modified / 1000, Tox21_110001=Tox21_201546, viability, 1 nM T3 present, 24 h) was over 90 µM. `CCCCCCCCSCC` [Ethyl octyl sulfide] showed a cytotoxic concentration (CC50) at 24 h (AC50 (uM) modified / 1000) of over 90 µM. For the molecule `O=C(O)c1cc(Br)c(O)c(Br)c1` [3,5-Dibromo-4-hydroxybenzoic acid], where the note is “AC50 (uM) modified / 1000”, the CC50 at 24 h is over 90 µM. The molecule `O=S(=O)(O)c1cc(O)c2c(/N=N/c3ccc(Nc4ccccc4)c4c(S(=O)(=O)O)cccc34)cc(S(=O)(=O)O)cc2c1` [Anazolene sodium] returned a half-maximal cytotoxic concentration (CC50) at 24 h (AC50 (uM) modified / 1000) of 22.8 µM. As to `C=C(C)C(=O)OCCNC(C)(C)C` [2-(tert-Butylamino)ethyl 2-methylprop-2-enoate], the CC50 at 24 h (AC50 (uM) modified / 1000) was over 90 µM.

The molecule `Cc1cc(C)c(C(=O)P(=O)(C(=O)c2c(C)cc(C)cc2C)c2ccccc2)c(C)c1` [(Phenylphosphoryl)bis[(2,4,6-trimethylphenyl)methanone]] gave a CC50 at 24 h (AC50 (uM) modified / 1000) of over 90 µM. For the molecule `O=C(Nc1ccc(S(=O)(=O)N2CCOCC2)cc1)c1cc(Cl)ccc1NS(=O)(=O)c1ccc(Cl)s1` [Ataciguat], under “AC50 (uM) modified / 1000”, it took 24 µM to reach half-maximal cytotoxicity (CC50 at 24 h). For the molecule `COCc1ccc(COC)cc1` [1,4-Bis(methoxymethyl)benzene], the CC50 at 24 h (AC50 (uM) modified / 1000) was over 90 µM. Same read-out and setting: with `Cn1cnc([N+](=O)[O-])c1Sc1ncnc2nc[nH]c12` [Azathioprine] the figure was over 50 µM. On to `COc1cc(N)c(Cl)cc1C(=O)NC1CCN(CCCOc2ccc(F)cc2)CC1OC` (stereo not drawn) [Cisapride], for which the CC50 at 24 h (AC50 (uM) modified / 1000) is 13 µM. On the same count and under the same terms, with `Cc1cc(-c2cc(C)c(N)c(C)c2)cc(C)c1N` [3,3',5,5'-Tetramethylbenzidine] the figure was over 90 µM. `CO[C@H]1/C=C/O[C@@]2(C)Oc3c(C)c(O)c4c(O)c(c5c(nc6cc(C)ccn65)c4c3C2=O)NC(=O)/C(C)=C\C=C\[C@H](C)[C@H](O)[C@@H](C)[C@@H](O)[C@@H](C)[C@H](OC(C)=O)[C@@H]1C` [Rifaximin] had a CC50 at 24 h (AC50 (uM) modified / 1000) of over 50 µM. As to `N#CSc1ccc(N)c([N+](=O)[O-])c1` [2-Nitro-4-thiocyanoaniline], the CC50 at 24 h (AC50 (uM) modified / 1000) was 51.1 µM.

On to `c1ccc2c(c1)[nH]c1cnccc12` [Norharman], for which the cytotoxic concentration (CC50) at 24 h (AC50 (uM) modified / 1000) is over 90 µM. For the molecule `CC(=O)c1ccc2c(c1)[C@H](NC(=O)c1ccc(F)cc1)[C@@H](O)C(C)(C)O2` [Carabersat], the midpoint of cytotoxicity (AC50 (uM) modified / 1000), the CC50 at 24 h, lay at 51.8 µM. `CC1(C)S[C@@H]2[C@H](NC(=O)Cc3ccccc3)C(=O)N2[C@H]1C(=O)O` [Penicillin G potassium] yielded a CC50 at 24 h (AC50 (uM) modified / 1000) of over 50 µM. Turning to `CCc1cccc2c3c([nH]c12)C(CC)(CC(=O)O)OCC3` (stereo not drawn) [Etodolac], the CC50 at 24 h (AC50 (uM) modified / 1000) was over 90 µM.

Molecule `c1ccc(-c2ccccn2)nc1` [2,2'-Bipyridine] gave a CC50 at 24 h (AC50 (uM) modified / 1000) of over 90 µM. `C=C[C@](C)(O)CC[C@@H]1[C@@]2(C)CCCC(C)(C)[C@@H]2CC[C@@]1(C)O` [Sclareol] had a CC50 at 24 h (AC50 (uM) modified / 1000) of 29.3 µM. For `C[C@H]1O[C@@H](O[C@H]2[C@@H](O)C[C@H](O[C@H]3[C@@H](O)C[C@H](O[C@H]4CC[C@@]5(C)[C@H](CC[C@@H]6[C@@H]5CC[C@]5(C)[C@@H](C7=CC(=O)OC7)CC[C@]65O)C4)O[C@@H]3C)O[C@@H]2C)C[C@H](O)[C@@H]1O` [Digitoxin], under “AC50 (uM) modified / 1000”, the CC50 at 24 h is over 60 µM.

Consider `CC1CC(OC(=O)C(O)c2ccccc2)CC(C)(C)C1` (stereo not drawn) [Cyclandelate], for which the CC50 at 24 h (AC50 (uM) modified / 1000) is over 50 µM. With `CN(C)CCOCCN(C)C` [Bis[2-(dimethylamino)ethyl]ether], the CC50 at 24 h (AC50 (uM) modified / 1000) was over 90 µM.

Turning to `CCN(CC)CCN1C(=O)CN=C(c2ccccc2F)c2cc(Cl)ccc21` [Flurazepam], the half-maximal cytotoxic concentration (CC50) at 24 h (AC50 (uM) modified / 1000) stood at 23.1 µM.

Consider `CC1(C)C(O)C(C)(C)C1O` (stereo not drawn) [2,2,4,4-Tetramethylcyclobutane-1,3-diol], for which the CC50 at 24 h (AC50 (uM) modified / 1000) is over 90 µM.

For the setting “AC50 (uM) modified / 1000”, `Cc1cc(C(=C2C=CC(=Nc3ccc(S(=O)(=O)O)cc3)C=C2)c2ccc(Nc3ccc(S(=O)(=O)O)cc3)cc2)cc(S(=O)(=O)O)c1N` [C.I. Acid Blue 22] came in with a CC50 at 24 h of over 60 µM. In turn, `CCCCCCCCCCCCCCCC(=O)OC[C@H](O)[C@H]1OC(=O)C(O)=C1O` [Ascorbyl palmitate] registered a CC50 at 24 h (AC50 (uM) modified / 1000) of over 50 µM. Take `N[C@@H](C(=O)N[C@@H]1C(=O)N2C(C(=O)O)=C(Cl)CS[C@H]12)c1ccccc1` [Cefaclor]: the CC50 at 24 h (AC50 (uM) modified / 1000) is over 50 µM. `C=C(C)[C@@H]1CC[C@@H](C)C[C@H]1O` [Isopulegol] returned a CC50 at 24 h (AC50 (uM) modified / 1000) of over 90 µM. In the case of `CC(=O)N[C@@H](CC(C)C)C(=O)O` [Acetyl-L-leucine], where the note is “AC50 (uM) modified / 1000”, the CC50 at 24 h is over 50 µM. On to `COc1ccccc1N1CCN(CCCNc2cc(=O)n(C)c(=O)n2C)CC1` [Urapidil], for which, where the note is “AC50 (uM) modified / 1000”, the cytotoxic concentration (CC50) at 24 h is over 50 µM. The molecule `NC(=O)c1c(Cl)cccc1Cl` [2,6-Dichlorobenzamide] gave a 50% cytotoxic concentration (CC50) at 24 h (AC50 (uM) modified / 1000) of over 90 µM. The same measure, in the same setting: then `Clc1c(Cl)c(Cl)c(Cl)c(Cl)c1Cl` [Hexachlorobenzene], with over 5 µM. Under “AC50 (uM) modified / 1000, Tox21_110001=Tox21_200241, viability, 1 nM T3 present, 24 h”, `CN(C)CCN(C)C` [N,N,N',N'-Tetramethylethylenediamine] registered a CC50 at 24 h of over 90 µM.

`O=C(N=NC(=O)OCc1ccccc1)OCc1ccccc1` [Dibenzyl diazene-1,2-dicarboxylate]: the CC50 at 24 h (AC50 (uM) modified / 1000) was over 90 µM. `Cc1cc(C(C#N)c2ccc(Cl)cc2)c(Cl)cc1NC(=O)c1cc(I)cc(I)c1O` (stereo not drawn) [Closantel] registered a CC50 at 24 h (AC50 (uM) modified / 1000) of 25 µM. Where the note is “AC50 (uM) modified / 1000”, `CCOC(=O)[C@H](CCc1ccccc1)N[C@H]1CCc2ccccc2N(CC(=O)O)C1=O` [Benazepril hydrochloride] showed a cytotoxic concentration (CC50) at 24 h of 5.95 µM.
